Conditions: Metastable liquid, Gas chromatography

CC(C)=CCC/C(C)=C/CC/C(C)=C/CC/C=C(\C)CC/C=C(\C)CCC=C(C)C
Conditions | vapor or sublimation pressure [kPa]
298.15 K | 3.7e-10
310 K | 3.1e-09
320 K | 1.6e-08
330 K | 7.5e-08
340 K | 3.1e-07
350 K | 1.2e-06
360 K | 3.9e-06
370 K | 1.2e-05
380 K | 3.5e-05
390 K | 9.3e-05
400 K | 0.00023
410 K | 0.00055
420 K | 0.0012
430 K | 0.0026
440 K | 0.0053
450 K | 0.01
460 K | 0.019
470 K | 0.035
480 K | 0.061
490 K | 0.1
500 K | 0.17
510 K | 0.27
520 K | 0.42
530 K | 0.63
540 K | 0.94
550 K | 1.4
560 K | 2
570 K | 2.8
580 K | 3.8
590 K | 5.1
600 K | 6.9
709.1 K | 101.33

CC(C)CCCC(C)CCCC(C)CCCCC(C)CCCC(C)CCCC(C)C (centres undefined) [2,6,10,15,19,23-hexamethyltetracosane]
Conditions | vapor or sublimation pressure [kPa]
298.15 K | 1.5e-09
310 K | 1.2e-08
320 K | 5.9e-08
330 K | 2.6e-07
340 K | 1e-06
350 K | 3.5e-06
360 K | 1.1e-05
370 K | 3.4e-05
380 K | 9.2e-05
390 K | 0.00024
400 K | 0.00057
410 K | 0.0013
420 K | 0.0028
430 K | 0.0059
440 K | 0.012
450 K | 0.022
460 K | 0.04
470 K | 0.071
480 K | 0.121
490 K | 0.2
500 K | 0.32
510 K | 0.51
520 K | 0.78
530 K | 1.2
540 K | 1.7
550 K | 2.5
560 K | 3.5
570 K | 4.8
580 K | 6.6
590 K | 8.9
600 K | 12
686.4 K | 101.33
